Data published in PubChem BioAssay (NCI).
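Grown in 96-well plates, cells were treated for 48 hours with each compound at five concentrations. Insufficient inhibition: endpoint recorded as highest concentration tested. At the TGI there is no net growth.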

System: SN12K1 renal
Assay: inhibition of tumour cell growth, NCI panel, 48 h

Row | Compound | TGI [µM]
1 | O=C(O)C1CCC(=O)N1S(=O)(=O)c1ccccc1 (configuration not stated) | > 100
2 | NC1(C(=O)O)CCc2ccc(N(CCCl)CCCl)cc2C1 (configuration not stated) | > 100
